Source: patent publication US20090325964A1, “Piperazine Metabotropic Glutamate Receptor 5 (MGLUR5) Negative Allosteric Modulators For Anxiety/Depression” (Wyeth, priority 2008, published 2009)
Read-outs that look alike come from different tables or passages of the source.

Experiments:
rat mGluR5 receptor = biological target: T1, rat mGluR5 receptor (Rattus norvegicus, UniProt P31424); assay: [3H]-MPEP displacement binding assay, HEK-293 cell membranes expressing rat mGluR5; conditions: for Ki: read-out: Median Ki; for inhibition at 10 µM: @ 10 μM compound, read-out: PCT INHIB (%) @ 10 μM
T1 construct: expressed in transfected cells; host or cells: HEK-293
T1 sequence (P31424 21-1203): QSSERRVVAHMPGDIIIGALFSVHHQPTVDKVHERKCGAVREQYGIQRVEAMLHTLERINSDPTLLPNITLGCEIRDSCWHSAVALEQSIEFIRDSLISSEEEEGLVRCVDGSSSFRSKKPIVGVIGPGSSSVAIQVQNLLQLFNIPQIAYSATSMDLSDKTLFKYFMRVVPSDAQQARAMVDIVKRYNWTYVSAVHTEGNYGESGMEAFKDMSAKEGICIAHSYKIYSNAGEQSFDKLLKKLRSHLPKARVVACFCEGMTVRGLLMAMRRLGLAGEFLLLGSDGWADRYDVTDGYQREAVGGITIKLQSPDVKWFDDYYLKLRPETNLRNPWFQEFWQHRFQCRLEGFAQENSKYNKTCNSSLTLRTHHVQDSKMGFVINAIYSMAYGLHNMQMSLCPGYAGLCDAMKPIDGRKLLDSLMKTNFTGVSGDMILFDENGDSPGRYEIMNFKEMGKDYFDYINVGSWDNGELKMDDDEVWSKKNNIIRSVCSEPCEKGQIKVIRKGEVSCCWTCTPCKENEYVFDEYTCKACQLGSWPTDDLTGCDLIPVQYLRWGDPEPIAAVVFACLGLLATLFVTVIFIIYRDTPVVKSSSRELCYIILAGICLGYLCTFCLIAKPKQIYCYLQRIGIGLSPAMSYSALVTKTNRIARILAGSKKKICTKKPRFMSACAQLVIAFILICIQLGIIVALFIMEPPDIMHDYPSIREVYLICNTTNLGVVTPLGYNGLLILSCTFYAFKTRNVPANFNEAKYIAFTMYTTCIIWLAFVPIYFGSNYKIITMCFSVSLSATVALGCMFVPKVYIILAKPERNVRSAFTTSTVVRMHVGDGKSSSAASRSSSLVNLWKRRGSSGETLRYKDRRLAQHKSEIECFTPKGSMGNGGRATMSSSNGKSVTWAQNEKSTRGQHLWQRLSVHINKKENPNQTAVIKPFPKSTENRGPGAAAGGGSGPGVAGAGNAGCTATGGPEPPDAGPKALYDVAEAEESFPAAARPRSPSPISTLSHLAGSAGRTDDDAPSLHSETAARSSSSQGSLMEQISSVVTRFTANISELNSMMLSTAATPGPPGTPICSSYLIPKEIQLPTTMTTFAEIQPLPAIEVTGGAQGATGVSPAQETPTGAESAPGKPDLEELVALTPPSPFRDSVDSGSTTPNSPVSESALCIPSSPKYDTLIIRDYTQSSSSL
Procedure, shortened: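 Membranes from HEK-293 cells expressing rat mGluR5 (12-25 μg protein), incubated 60 min at room temperature with 4 nM [3H]-MPEP in 50 mM Tris pH 7.5, then filtered. Nonspecific binding defined with 10 μM MPEP.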

mGluR5 = mGluR5 (Rattus norvegicus, UniProt P31424); assay: IC50 column under 'Biological Activity' (assay not identified in the shown text; not the binding Ki)
Chain of mGluR5 (P31424 21-1203): as above

[1] = [3H]-MPEP displacement, rat mGluR5

SMILES | Ki (rat mGluR5 receptor; [1]) [nM] | IC50 (mGluR5) [nM] | inhibition at 10 µM (rat mGluR5 receptor; Biological Activity, Table 2A) [%] | Ki (rat mGluR5 receptor; Biological Activity, Table 2A) [nM]
COc1ccc(C(=O)N2CCN(C(=O)c3ccccc3)CC2)cc1C#Cc1ccccn1 [Compound 244, 1-benzoyl-4-[4-methoxy-3-(pyridin-2-ylethynyl)benzoyl]piperazine] | 54 | 237 | – | –
COc1ccc(C(=O)N2C[C@@H]3C[C@@H]2CN3c2ccc(F)cc2)cc1C#Cc1ccccn1 [Compound 227, (1S,4R)-2-(4-fluorophenyl)-5-[4-methoxy-3-(pyridin-2-ylethynyl)benzoyl]-2,5-diazabicyclo[2.2.1]heptane] | 71 | > 1000 | – | –
COc1ccc(C(=O)N2CCN(S(=O)(=O)c3ccc4c(c3)OCCO4)CC2)cc1C#Cc1ccccn1 [Compound 235, 1-(2,3-dihydro-1,4-benzodioxin-6-ylsulfonyl)-4-[4-methoxy-3-(pyridin-2-ylethynyl)benzoyl]piperazine] | 75 | > 1000 | – | –
COc1ccc(C(=O)N2CCN(c3ncc(Br)c(OC)n3)CC2)cc1C#Cc1ccccn1 [Compound 197, 5-bromo-4-methoxy-2-{4-[4-methoxy-3-(pyridin-2-ylethynyl)benzoyl]piperazin-1-yl}pyrimidine] | 12 | 56 | – | –
COc1ccc(N2CCN(C(=O)c3ccc(OC)c(C#Cc4ccccn4)c3)CC2)cc1 [Compound 233, 1-(4-methoxyphenyl)-4-[4-methoxy-3-(pyridin-2-ylethynyl)benzoyl]piperazine] | 66 | > 1000 | – | –
COc1ccc(C(=O)N2CCN(c3ccc([N+](=O)[O-])cn3)CC2)cc1C#Cc1ccccn1 [Compound 229, 1-[4-methoxy-3-(pyridin-2-ylethynyl)benzoyl]-4-(5-nitropyridin-2-yl)piperazine] | 56 | > 1000 | – | –
COc1ccc(C(=O)N2CCN(c3ccc(Cl)c(Cl)c3)CC2)cc1C#Cc1ccccn1 [Compound 218, 1-(3,4-dichlorophenyl)-4-[4-methoxy-3-(pyridin-2-ylethynyl)benzoyl]piperazine] | 48 | > 1000 | – | –
COc1ccc(C(=O)N2CCN(c3noc4ccccc34)CC2)cc1C#Cc1ccccn1 [Compound 251, 3-{4-[4-methoxy-3-(pyridin-2-ylethynyl)benzoyl]piperazin-1-yl}-1,2-benzisoxazole] | 6 | 25 | – | –
COc1ccc(C(=O)N2CCN(S(=O)(=O)c3ccc(Cl)s3)CC2)cc1C#Cc1ccccn1 [Compound 225, 1-[(5-chloro-2-thienyl)sulfonyl]-4-[4-methoxy-3-(pyridin-2-ylethynyl)benzoyl]piperazine] | 51 | > 1000 | – | –
COc1ccc(C(=O)N2CCN(c3cncc(C)n3)CC2)cc1C#Cc1ccccn1 [Compound 204, 2-{4-[4-methoxy-3-(pyridin-2-ylethynyl)benzoyl]piperazin-1-yl}-6-methylpyrazine] | 29 | 132 | – | –
COc1ccc(C(=O)N2CCN(c3nsc4ccccc34)CC2)cc1C#Cc1ccccn1 [Compound 201, 3-{4-[4-methoxy-3-(pyridin-2-ylethynyl)benzoyl]piperazin-1-yl}-1,2-benzisothiazole] | 3 | 24 | – | –
COc1ccc(C(=O)N2CCN(c3ccc(Cl)cc3)CC2)cc1C#Cc1ccccn1 [Compound 217, 1-(4-chlorophenyl)-4-[4-methoxy-3-(pyridin-2-ylethynyl)benzoyl]piperazine] | 27 | 336 | – | –
COc1ccc(C(=O)N2CCN(c3cccc(F)c3)CC2)cc1C#Cc1ccccn1 [Compound 223, 1-(3-fluorophenyl)-4-[4-methoxy-3-(pyridin-2-ylethynyl)benzoyl]piperazine] | 10 | 103 | – | –
COc1ccc(C(=O)N2CCN(c3cc(C)nc(C(C)C)n3)CC2)cc1C#Cc1ccccn1 [Compound 220, 2-isopropyl-4-{4-[4-methoxy-3-(pyridin-2-ylethynyl)benzoyl]piperazin-1-yl}-6-methylpyrimidine] | 89 | > 1000 | – | –
COc1ccc(C(=O)N2CCN(c3ncc(Cl)cc3Cl)CC2)cc1C#Cc1ccccn1 [Compound 185, 1-(3,5-dichloropyridin-2-yl)-4-[4-methoxy-3-(pyridin-2-ylethynyl)benzoyl]piperazine] | 47 | 43 | – | –
COc1ccc(C(=O)N2CCN(c3ccccc3C)CC2)cc1C#Cc1ccccn1 [Compound 221, 1-[4-methoxy-3-(pyridin-2-ylethynyl)benzoyl]-4-(2-methylphenyl)piperazine] | 100 | > 1000 | – | –
COc1ccc(C(=O)N2CCN(c3nc(C)cc(C)n3)CC2)cc1C#Cc1ccccn1 [Compound 192, 2-{4-[4-methoxy-3-(pyridin-2-ylethynyl)benzoyl]piperazin-1-yl}-4,6-dimethylpyrimidine] | 45 | 109 | – | –
COc1ccc(C(=O)N2CCN(c3ccc(Cl)cn3)CC2)cc1C#Cc1ccccn1 [Compound 188, 1-(5-chloropyridin-2-yl)-4-[4-methoxy-3-(pyridin-2-ylethynyl)benzoyl]piperazine] | 7 | 86 | – | –
COc1ccc(C(=O)N2CCN(c3ncccc3Cl)CC2)cc1C#Cc1ccccn1 [Compound 186, 1-(3-chloropyridin-2-yl)-4-[4-methoxy-3-(pyridin-2-ylethynyl)benzoyl]piperazine] | 19 | 37 | – | –
COc1ccc(C(=O)N2CCN(c3cccc(C)n3)CC2)cc1C#Cc1ccccn1 [Compound 198, 1-[4-methoxy-3-(pyridin-2-ylethynyl)benzoyl]-4-(6-methylpyridin-2-yl)piperazine] | – | 34 | – | –
O=C(c1ccc(F)c(C#Cc2ccccc2)c1)N1CCN(c2ccccn2)CC1 [Compound 89, 1-[4-fluoro-3-(phenylethynyl)benzoyl]-4-pyridin-2-ylpiperazine] | – | – | 51 | 50
CN1CCN(C(=O)c2cccc(C#Cc3ccccc3)c2)CC1 [Compound 70, 1-methyl-4-[3-(phenylethynyl)benzoyl]piperazine] | – | – | 0 | –
COc1ccc(C(=O)N2CCN(c3ccccc3OC)CC2)cc1C#Cc1ccccn1 [Compound 230, 1-(2-methoxyphenyl)-4-[4-methoxy-3-(pyridin-2-ylethynyl)benzoyl]piperazine] | 734 | – | – | –

Second part, the molecule after the results:

Ki (rat mGluR5 receptor; [1]) [nM] | IC50 (mGluR5) [nM] | inhibition at 10 µM (rat mGluR5 receptor; Biological Activity, Table 2A) [%] | Ki (rat mGluR5 receptor; Biological Activity, Table 2A) [nM] | SMILES
– | 72 | – | – | COc1ccc(C(=O)N2CCN(c3ncccn3)CC2)cc1C#Cc1ccccn1 [Compound 353, 2-{4-[4-methoxy-3-(pyridin-2-ylethynyl)benzoyl]piperazin-1-yl}pyrimidine]
61 | 51 | – | – | COc1ccc(C(=O)N2CCN(Cc3ccccc3)C(=O)C2)cc1C#Cc1ccccn1 [Compound 331, 1-Benzyl-4-[4-methoxy-3-(pyridin-2-ylethynyl)benzoyl]piperazin-2-one]
1 | 50 | – | – | Cc1ccc(C(=O)N2CCN(c3noc4ccccc34)CC2)cc1C#Cc1ccccn1 [Compound 307, 3-{4-[4-Methyl-3-(pyridin-2-ylethynyl)benzoyl]piperazin-1-yl}-1,2-benzisoxazole]
14 | 208 | – | – | COc1ccc(C(=O)N2CCN(c3ccccc3)CC2)cc1C#Cc1ccccn1 [Compound 292, 1-[4-methoxy-3-(pyridin-2-ylethynyl)benzoyl]-4-phenylpiperazine]
17 | 144 | – | – | COc1ccc(C(=O)N2CCN(Cc3ccc(Cl)cc3)CC2)cc1C#Cc1ccccn1 [Compound 275, 1-(4-chlorobenzyl)-4-[4-methoxy-3-(pyridin-2-ylethynyl)benzoyl]piperazine]
58 | > 1000 | – | – | COc1ccc(C(=O)N2CCN(c3ncc(C#N)c(N)n3)CC2)cc1C#Cc1ccccn1 [Compound 293, 4-Amino-2-(4-(4-methoxy-3-(pyridin-2-ylethynyl)benzoyl)piperazin-1-yl)pyrimidine-5-carbonitrile]
96 | 50 | – | – | COc1ccc(C(=O)N2CCN(c3ccccc3Cl)C(=O)C2)cc1C#Cc1ccccn1 [Compound 328, 1-(2-chlorophenyl)-4-{[4-methoxy-3-(pyridin-2-ylethynyl)phenyl]carbonyl}piperazin-2-one]
40 | 49 | – | – | COc1ccc(C(=O)N2CCN(c3cccc(Cl)c3)C(=O)C2)cc1C#Cc1ccccn1 [Compound 327, 1-(3-chlorophenyl)-4-{[4-methoxy-3-(pyridin-2-ylethynyl)phenyl]carbonyl}piperazin-2-one]
57 | 219 | – | – | COc1ccc(C(=O)N2CCN(Cc3ccc(F)cc3)CC2)cc1C#Cc1ccccn1 [Compound 268, 1-(4-fluorobenzyl)-4-[4-methoxy-3-(pyridin-2-ylethynyl)benzoyl]piperazine]
7 | 326 | – | – | COc1ccc(C(=O)N2CCN(Cc3ccc(Br)cc3F)CC2)cc1C#Cc1ccccn1 [Compound 285, 1-(4-bromo-2-fluorobenzyl)-4-[4-methoxy-3-(pyridin-2-ylethynyl)benzoyl]piperazine]
41 | 95 | – | – | COc1ccc(C(=O)N2CCN(C(=O)c3ccco3)CC2)cc1C#Cc1ccccn1 [Compound 258, 1-(2-furoyl)-4-[4-methoxy-3-(pyridin-2-ylethynyl)benzoyl]piperazine]
64 | 56 | – | – | COc1ccc(C(=O)N2CCN(c3ncccn3)CC2)cc1C#Cc1cccc(C#N)c1 [Compound 361, 3-({2-methoxy-5-[(4-pyrimidin-2-ylpiperazin-1-yl)carbonyl]phenyl}ethynyl)benzonitrile]
17 | 148 | – | – | COc1ccc(C(=O)N2CCN(c3ncc(Br)cn3)CC2)cc1C#Cc1ccccn1 [Compound 262, 5-bromo-2-{4-[4-methoxy-3-(pyridin-2-ylethynyl)benzoyl]piperazin-1-yl}pyrimidine]
